The values below are quoted from earlier work in US9943543B2, “Treating male infertility secondary to sperm oxidative stress” (priority 2009, dated 2018).

Structures are written as SMILES.

Consider `CCC(=O)O[C@H](CC(=O)[O-])C[N+](C)(C)C` [Propionyl-L-carnitine], for which the “time to peak concentrations” value (after oral administration) is “about 1 hour”. In addition, the “time of rise in L-carnitine plasma levels after administration” value (after oral administration of propionyl-L-carnitine) is 2 to 6 h.
